Experiment [1] in a line: DRUGMATRIX: beta-Lactamase enzyme inhibition (substrate: Nitrocefin). More on the design: species or system Bacillus cereus. Particulars: Not Active = under 50% inhibition at 10 µM.
Experiment [2] addresses T1, C-X-C chemokine receptor type 2 (Homo sapiens, UniProt P25025).
T1 sequence (P25025 whole entry): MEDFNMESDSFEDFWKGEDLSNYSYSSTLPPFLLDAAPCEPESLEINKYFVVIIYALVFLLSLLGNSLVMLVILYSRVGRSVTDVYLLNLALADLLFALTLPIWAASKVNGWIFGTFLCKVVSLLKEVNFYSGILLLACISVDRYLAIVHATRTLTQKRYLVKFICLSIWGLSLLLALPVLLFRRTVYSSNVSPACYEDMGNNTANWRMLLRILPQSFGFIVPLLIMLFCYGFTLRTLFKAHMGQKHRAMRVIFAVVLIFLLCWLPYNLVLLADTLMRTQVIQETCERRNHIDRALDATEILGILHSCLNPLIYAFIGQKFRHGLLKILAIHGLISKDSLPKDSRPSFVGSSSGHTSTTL
It counts as cell membranes, Membrane. Particulars: cho-k1.

The next experiment has as its target T2, Endothelin-1 receptor (Homo sapiens, UniProt P25101). Further: in other assays of this panel Not Active means under 50% inhibition at 10 µM.
T2 sequence (P25101 whole entry): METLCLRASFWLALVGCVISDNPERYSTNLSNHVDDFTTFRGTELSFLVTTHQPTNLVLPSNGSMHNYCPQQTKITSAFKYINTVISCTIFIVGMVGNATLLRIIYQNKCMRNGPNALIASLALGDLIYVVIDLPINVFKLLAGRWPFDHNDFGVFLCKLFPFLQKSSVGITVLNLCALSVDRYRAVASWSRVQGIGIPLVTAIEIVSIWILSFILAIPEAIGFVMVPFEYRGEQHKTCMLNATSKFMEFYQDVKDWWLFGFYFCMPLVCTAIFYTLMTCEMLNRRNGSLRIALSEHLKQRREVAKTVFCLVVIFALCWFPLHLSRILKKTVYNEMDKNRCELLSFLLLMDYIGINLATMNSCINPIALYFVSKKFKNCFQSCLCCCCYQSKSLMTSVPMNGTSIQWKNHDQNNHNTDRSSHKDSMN
The experiment is classed as cell membranes, CHO-K1, Membrane.

Experiment [3] concerns the target T3, Nitric oxide synthase, inducible (Mus musculus, UniProt P29477).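 Further: inhibition of iNOS enzyme activity measured with L-arginine as substrate; in other assays of this panel Not Active means under 50% inhibition at 10 µM.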
T3 sequence (P29477 whole entry): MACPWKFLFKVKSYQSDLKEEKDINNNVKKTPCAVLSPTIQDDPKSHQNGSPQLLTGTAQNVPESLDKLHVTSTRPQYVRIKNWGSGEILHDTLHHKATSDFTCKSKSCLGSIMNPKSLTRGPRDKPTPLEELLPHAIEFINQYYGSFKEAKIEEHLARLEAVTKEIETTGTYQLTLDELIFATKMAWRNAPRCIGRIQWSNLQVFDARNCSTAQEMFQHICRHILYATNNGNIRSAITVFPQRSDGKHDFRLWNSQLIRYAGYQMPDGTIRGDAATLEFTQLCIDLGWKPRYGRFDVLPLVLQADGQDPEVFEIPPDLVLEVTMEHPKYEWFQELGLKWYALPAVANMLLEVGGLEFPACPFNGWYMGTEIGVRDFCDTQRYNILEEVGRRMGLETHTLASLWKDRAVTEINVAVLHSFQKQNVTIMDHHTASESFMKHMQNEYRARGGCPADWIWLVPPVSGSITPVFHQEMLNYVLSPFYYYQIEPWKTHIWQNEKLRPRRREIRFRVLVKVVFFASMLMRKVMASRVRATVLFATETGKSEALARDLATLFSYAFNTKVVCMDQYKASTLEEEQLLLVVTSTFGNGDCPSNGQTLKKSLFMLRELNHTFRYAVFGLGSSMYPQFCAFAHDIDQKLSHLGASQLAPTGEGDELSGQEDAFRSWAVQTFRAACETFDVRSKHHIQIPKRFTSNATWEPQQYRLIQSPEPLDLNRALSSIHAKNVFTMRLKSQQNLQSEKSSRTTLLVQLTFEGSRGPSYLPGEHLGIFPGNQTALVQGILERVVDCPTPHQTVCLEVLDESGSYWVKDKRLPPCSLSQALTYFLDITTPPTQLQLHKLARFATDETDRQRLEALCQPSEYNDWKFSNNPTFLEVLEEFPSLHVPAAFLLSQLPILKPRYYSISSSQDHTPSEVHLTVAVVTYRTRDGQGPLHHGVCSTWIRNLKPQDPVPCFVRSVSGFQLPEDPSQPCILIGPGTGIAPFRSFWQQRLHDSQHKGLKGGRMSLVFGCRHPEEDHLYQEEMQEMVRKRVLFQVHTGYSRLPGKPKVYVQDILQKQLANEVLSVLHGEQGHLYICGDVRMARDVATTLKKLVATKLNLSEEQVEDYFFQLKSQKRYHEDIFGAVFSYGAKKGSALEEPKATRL
More on the design: species or system Escherichia coli.

Experiment [4] is described as follows: DRUGMATRIX: Potassium Channel [KATP] radioligand binding (ligand: [3H] Glyburide). The experiment is classed as cell membranes, Membrane. Particulars: hit-t15; Not Active = under 50% inhibition at 10 µM.
In experiment [5] the target is Epidermal growth factor receptor (Homo sapiens, UniProt P00533). Briefly: DRUGMATRIX: Protein Tyrosine Kinase, EGF Receptor enzyme inhibition (substrate: Poly(Glu:Tyr)). It counts as cell-based, Insect cells. Particulars: Not Active = under 50% inhibition at 10 µM.
In experiment [6] the target is Delta-type opioid receptor (Homo sapiens, UniProt P41143). The experiment is classed as cell membranes, HEK293, Membrane. Further: in other assays of this panel Not Active means under 50% inhibition at 10 µM.
Sequence of Delta-type opioid receptor (P41143 whole entry): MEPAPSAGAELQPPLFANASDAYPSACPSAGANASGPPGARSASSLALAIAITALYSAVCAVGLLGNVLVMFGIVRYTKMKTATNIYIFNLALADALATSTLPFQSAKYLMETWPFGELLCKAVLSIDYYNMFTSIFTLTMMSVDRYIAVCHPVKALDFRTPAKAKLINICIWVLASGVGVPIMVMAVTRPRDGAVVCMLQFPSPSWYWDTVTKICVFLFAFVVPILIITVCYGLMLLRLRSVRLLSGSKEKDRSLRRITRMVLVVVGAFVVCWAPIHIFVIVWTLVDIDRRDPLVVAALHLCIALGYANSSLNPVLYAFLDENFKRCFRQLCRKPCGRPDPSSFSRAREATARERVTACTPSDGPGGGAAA

Sequence of Epidermal growth factor receptor (P00533 whole entry): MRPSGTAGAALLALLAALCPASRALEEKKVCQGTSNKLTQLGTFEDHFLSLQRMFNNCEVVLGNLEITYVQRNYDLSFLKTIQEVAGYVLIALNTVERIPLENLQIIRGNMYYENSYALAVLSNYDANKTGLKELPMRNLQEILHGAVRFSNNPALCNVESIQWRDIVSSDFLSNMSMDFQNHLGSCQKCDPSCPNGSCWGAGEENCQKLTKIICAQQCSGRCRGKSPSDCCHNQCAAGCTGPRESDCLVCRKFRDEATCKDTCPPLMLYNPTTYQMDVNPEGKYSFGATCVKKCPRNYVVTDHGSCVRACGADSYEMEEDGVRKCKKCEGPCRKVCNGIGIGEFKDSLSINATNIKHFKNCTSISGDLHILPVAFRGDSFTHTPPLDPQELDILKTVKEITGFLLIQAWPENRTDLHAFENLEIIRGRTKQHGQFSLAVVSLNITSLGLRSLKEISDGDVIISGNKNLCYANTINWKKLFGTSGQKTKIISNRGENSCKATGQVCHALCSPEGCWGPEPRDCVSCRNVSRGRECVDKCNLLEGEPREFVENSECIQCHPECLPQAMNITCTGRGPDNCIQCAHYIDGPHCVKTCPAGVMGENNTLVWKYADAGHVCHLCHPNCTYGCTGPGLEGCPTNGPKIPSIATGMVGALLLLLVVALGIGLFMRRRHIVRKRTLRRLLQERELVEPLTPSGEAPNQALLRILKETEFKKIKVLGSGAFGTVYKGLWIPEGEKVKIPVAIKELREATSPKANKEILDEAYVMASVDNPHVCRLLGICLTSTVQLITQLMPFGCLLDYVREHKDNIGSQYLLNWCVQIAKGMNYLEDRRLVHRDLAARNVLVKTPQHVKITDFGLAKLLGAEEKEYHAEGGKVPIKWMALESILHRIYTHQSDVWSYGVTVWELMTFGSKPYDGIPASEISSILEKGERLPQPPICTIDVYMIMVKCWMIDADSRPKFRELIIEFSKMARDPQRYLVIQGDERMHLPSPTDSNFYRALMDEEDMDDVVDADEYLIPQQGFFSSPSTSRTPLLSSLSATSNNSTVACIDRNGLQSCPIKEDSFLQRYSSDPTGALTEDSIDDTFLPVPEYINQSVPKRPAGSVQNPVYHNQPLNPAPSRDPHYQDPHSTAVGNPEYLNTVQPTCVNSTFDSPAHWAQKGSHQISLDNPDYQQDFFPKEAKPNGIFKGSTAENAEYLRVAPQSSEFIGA

For `CC(C)(C)NC(=O)[C@@H]1C[C@@H]2CCCC[C@@H]2CN1C[C@@H](O)[C@H](Cc1ccccc1)NC(=O)[C@H](CC(N)=O)NC(=O)c1ccc2ccccc2n1`, the IC50 entry (in experiment [1]; in experiment [2]; at Endothelin-1 receptor (cho-k1); in experiment [3]; in experiment [4]; in experiment [5] (insect cells)) was “Not Active” each time. The inhibitory constant (Ki) result in experiment [1] and in experiment [4] was “Not Active” each time.
In the case of `CC(=O)[C@@]1(O)CC[C@H]2[C@@H]3C[C@H](C)C4=CC(=O)CC[C@]4(C)[C@H]3CC[C@@]21C`, the 50% inhibitory concentration (IC50) result (in experiment [1]; in experiment [2]; at Endothelin-1 receptor (cho-k1); in experiment [3]; in experiment [6] (hek293); in experiment [4]) was “Not Active” in each case. For the same compound, the IC50 (usually the point on the concentration scale where inhibition reaches its midpoint) in experiment [5] (insect cells) is “Not Active”. The inhibitory constant (Ki) result in experiment [1] and in experiment [4] was “Not Active” each time.
Take `N[C@@H](Cc1ccc(N(CCCl)CCCl)cc1)C(=O)O`: the IC50 entry (in experiment [1]; in experiment [2]; on Endothelin-1 receptor (cho-k1); in experiment [3]; in experiment [6] (hek293); in experiment [4]) was “Not Active” each time. For the same compound, in experiment [5] (insect cells), the half-inhibitory concentration (IC50) entry was “Not Active”. Also, the Ki result in experiment [1] and in experiment [4] was “Not Active” each time.
Take `CCCCc1oc2ccccc2c1C(=O)c1cc(I)c(OCCN(CC)CC)c(I)c1` [AMIODARONE]: the half-maximal inhibitory concentration (IC50) entry in experiment [2] is “Not Active”; on Endothelin-1 receptor (read-out: IC50), 26.3 µM; in experiment [3], “Not Active”; in experiment [5] (insect cells) it was “Not Active”. Further, the Ki (usually a measure of affinity in units of concentration, obtained from inhibition or displacement) at Endothelin-1 receptor (read-out: Ki) was found to be 16.2 µM.
Take `OCCN(CCO)c1nc(N2CCCCC2)c2nc(N(CCO)CCO)nc(N3CCCCC3)c2n1` [DIPYRIDAMOLE]: the half-maximal inhibitory concentration (IC50) result (in experiment [1]; in experiment [2]; at Endothelin-1 receptor (cho-k1); in experiment [3]; in experiment [6] (hek293); in experiment [4]) was “Not Active” throughout. In experiment [5] (insect cells), the half-maximal inhibitory concentration (IC50) result is reported as “Not Active”. For the same compound, the Ki result in experiment [1] and in experiment [4] was “Not Active” each time.
With `Cc1oncc1C(=O)Nc1ccc(C(F)(F)F)cc1` [LEFLUNOMIDE], the IC50 entry (in experiment [1]; in experiment [2]; against Endothelin-1 receptor (cho-k1); in experiment [3]; in experiment [6] (hek293); in experiment [4]) was “Not Active” throughout. The IC50 entry in experiment [5] (insect cells) is “Not Active”. Moreover, the inhibitory constant (Ki) entry in experiment [1] and in experiment [4] was “Not Active” throughout.
`c1ccc([C@H]2CN3CCSC3=N2)cc1` [LEVAMISOLE]: the IC50 entry (in experiment [1]; in experiment [2]; against Endothelin-1 receptor (cho-k1); in experiment [3]; in experiment [6] (hek293); in experiment [4]) was “Not Active” each time. For the same compound, in experiment [5] (insect cells), the IC50 result is on record as “Not Active”. Moreover, the Ki entry in experiment [1] and in experiment [4] was “Not Active” in each case.
Take `N[C@@H](Cc1ccc(O)c(O)c1)C(=O)O` [LEVODOPA]: the concentration for half-maximal inhibition (IC50) result (in experiment [1]; in experiment [2]; at Endothelin-1 receptor (cho-k1); in experiment [3]; in experiment [6] (hek293); in experiment [4]) was “Not Active” throughout. Besides, the IC50 in experiment [5] (read-out: IC50) was 2.88 µM. Further, the inhibitory constant (Ki) entry in experiment [1] and in experiment [4] was “Not Active” throughout.
On to `N[C@@H](Cc1cc(I)c(Oc2ccc(O)c(I)c2)c(I)c1)C(=O)O` [LIOTHYRONINE], for which the IC50 entry (in experiment [2]; on Endothelin-1 receptor (cho-k1); in experiment [3]; in experiment [6] (hek293); in experiment [5] (insect cells)) was “Not Active” in each case.
On to `O=NN(CCCl)C(=O)NC1CCCCC1` [LOMUSTINE], for which the half-maximal inhibitory concentration (IC50) entry (in experiment [1]; in experiment [2]; against Endothelin-1 receptor (cho-k1); in experiment [3]; in experiment [6] (hek293); in experiment [4]) was “Not Active” in each case. The IC50 entry in experiment [5] (insect cells) is “Not Active”. The inhibition constant Ki entry in experiment [1] and in experiment [4] was “Not Active” throughout.
For `CN1CCN(CCCN2c3ccccc3Sc3ccc(Cl)cc32)CC1` [PROCHLORPERAZINE], the IC50 entry (in experiment [2]; at Endothelin-1 receptor (cho-k1); in experiment [3]; in experiment [6] (hek293); in experiment [5] (insect cells)) was “Not Active” each time.
Turning to `Cc1nc2n(c(=O)c1CCN1CCC(c3noc4cc(F)ccc34)CC1)CCCC2` [RISPERIDONE], the 50% inhibitory concentration (IC50) result (in experiment [2]; on Endothelin-1 receptor (cho-k1); in experiment [3]; in experiment [6] (hek293); in experiment [5] (insect cells)) was “Not Active” throughout.
For the compound `Cc1noc(NS(=O)(=O)c2ccc(N)cc2)c1C` [SULFISOXAZOLE], the concentration for half-maximal inhibition (IC50) entry in experiment [1], in experiment [2], in experiment [3], in experiment [6] (hek293), in experiment [4] and in experiment [5] (insect cells) was “Not Active” in each case. The inhibition constant (Ki) entry in experiment [1] and in experiment [4] was “Not Active” throughout.
For `CC/C(=C(\c1ccccc1)c1ccc(OCCN(C)C)cc1)c1ccccc1` [TAMOXIFEN], the half-maximal inhibitory concentration (IC50) entry in experiment [2] was “Not Active”; on Endothelin-1 receptor (cho-k1), “Not Active”; in experiment [3] it was “Not Active”; in experiment [6] (read-out: IC50), 13.3 µM; in experiment [5] (read-out: IC50), 3.55 µM. For the same compound, in experiment [6] (read-out: Ki), the Ki came to 4.7 µM.
For `Nc1nc2nc[nH]c2c(=S)[nH]1` [THIOGUANINE], the concentration for half-maximal inhibition (IC50) entry (in experiment [1]; in experiment [2]; on Endothelin-1 receptor (cho-k1); in experiment [3]; in experiment [6] (hek293); in experiment [5] (insect cells)) was “Not Active” in each case. For the same compound, the Ki result in experiment [1] was “Not Active”.
Take `N[C@@H]1[C@H]2CN(c3nc4c(cc3F)c(=O)c(C(=O)O)cn4-c3ccc(F)cc3F)C[C@@H]12` [TROVAFLOXACIN]: the IC50 entry (in experiment [1]; in experiment [2]; on Endothelin-1 receptor (cho-k1); in experiment [3]; in experiment [6] (hek293); in experiment [4]) was “Not Active” throughout. In addition, the inhibitory constant (Ki) entry in experiment [1] and in experiment [4] was “Not Active” in each case.
For `N#CC(C#N)=Cc1ccc(O)c(O)c1` [TYRPHOSTIN 23], the half-inhibitory concentration (IC50) result (in experiment [1]; in experiment [2]; on Endothelin-1 receptor (cho-k1); in experiment [3]; in experiment [6] (hek293); in experiment [4]) was “Not Active” each time. Moreover, the Ki entry in experiment [1] and in experiment [4] was “Not Active” in each case.

Values taken from ChEMBL document CHEMBL1909046, “DrugMatrix in vitro pharmacology data”.
